# In article PMC13242511, “Disrupting Notch signalling by a small molecule inhibiting dihydroorotate dehydrogenase activity” (Scientific Reports, 2026):
# Like-named read-outs stand apart in the source and are kept apart here.
# Tests used:
# Assay type in all cases: cell-based
# NOTCH1 = test: Western blot analysis of S3-cleaved NOTCH1 (a-N1-V1744); settings: for V1744 (activated N1) band intensity / V1744 normalised to beta-actin signals / V1744, DMSO as reference: Western blot quantification, Supplemental Figure 4K; for V1744, DMSO as reference: DMSO = 1
# Protocol: Cells were washed in ice-cold PBS and incubated for 30 min on ice with RIPA cell lysis buffer (Thermofisher, cat #89900) containing protease and phosphatase inhibitors (Thermofisher, cat #78442), scraped off and homogenized using a 25G syringe, and subsequently centrifugated for 10 min at > 13,000xg. […] After electrophoresis, gels were placed directly onto a TransBlot Turbo PVDF or nitrocellulose membrane (Bio-rad, cat #1704157 and cat #1704159) and transferred using the “HIGH MW” protocol (Bio-Rad). Subsequently, membranes were blocked for 1 h at room temperature using Clear Milk Blocking Buffer (ThermoFisher, cat #37587) supplemented with 0.1% Tween20 (Sigma-Aldrich, cat #P1379). Detection of antibody binding was performed by using Clarity Western ECL-Substrate (Bio-rad, cat #1705060S). Beta-Actin protein signals were used as a loading control. Western blot membranes were in some experiments stripped after development (indicated in the figure in each respective case) by washing the membranes twice for 10 min in PBS, followed by incubation in membranes in western blot stripping buffer (ThermoFisher, cat #21059) for 30 min at room temperature and gentle agitation. Stripped membranes were washed twice with PBS and incubated for 30 min in blocking buffer before incubation with primary antibody. A list of all antibodies used in this study is provided in Supplemental Table 6. Uncropped western blot images are provided in […]. Protein expression levels of western blot bands were quantified using Fiji (V.2.16) with beta-Actin signals for normalisation (Supplemental Table 8). Uncropped western blot images are provided in Supplemental Fig. 10.
# γ-secretase complex = γ-secretase complex (Homo sapiens, UniProt P49768); test: APP-C99 counter assay (GSI reporter assay); design: AUC APP: scale not given here; settings: for remaining activity at 10 µM / activity at 10 µM / remaining activity at 25 µM / remaining activity at […]: 24 h; for remaining activity at 10 µM / remaining activity at 25 µM / remaining activity at […]: APP-C99 counter assay, read-out: 3p-DR in % of DMSO counter; for activity at 10 µM: sheet conf vs counter 10 µM, read-out: Counter screen (Hek APP-C99); for remaining activity at […]: 1,25µM; for AUC APP: area under the 14-point dose-response curve, replicates averaged; for AUC 9p APP-counter assay / AUC. 14p APP-counter assay: AUCs averaged when replicates available; for APP assay: overview in comparison to compound C, Supplemental Fig. 9
# How it was run: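 γ-secretase activity reported via APP cleavage driving firefly luciferase, normalized to renilla. After 24 h transfection then 24 h compound exposure, signals were read (0.1 s integration). Triplicate dose–responses fitted by variable-slope four-parameter model for IC50; area under curve also derived.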
# [1] = tested on: T-ALL and breast cancer cell lines; test: Growth inhibition in tumour cell lines (panel, cell lines not named singly); design: key to tumor cell growth: + indicates that the compound had an effect; -: − indicates that there was no significant effect in the respective assay; settings: for IC50: six days, read-out: IC50, metabolic activity; for viability assay: overview in comparison to compound C, Supplemental Fig. 9; for tumor cell growth: summary Fig. 8E
# Source text: We next investigated whether compounds A-E affected growth and viability of cell lines from T-cell acute lymphoblastic leukaemia (T-ALL) and breast cancer, two tumour types in which elevated Notch signalling has been implicated in tumorigenesis. […] When testing analogues of compounds B and C, five of the seven B analogues and one of the two C analogues produced dose–response curves and IC50s, which however were higher compared to the original hits (Supplemental Fig. 5A; IC50s are presented in Supplemental Table 6).
# Compounds were spotted on white 384-well tissue culture plates (Greiner, cat #781080) using an Echo 525 Acoustic liquid handler (Labcyte). Cells were grown to 80% confluence, detached if required, counted and 20 µl containing 2000–4000 cells per well was then seeded in each well and cultivated for three (4,000 cells seeded) and six days (2,000 cells seeded). […] Luciferase activity (reading out metabolic activity) was determined using the CellTiter-Glo 2.0 kit (CTG, Promega, cat #G9242) following the manufacturer’s instructions and luminescence was measured on a SpectraMaxi3 or Varioscan plate reader (Molecular Devices, Thermofisher).
# [2] = tested on: T-ALL cells (Jurkat, RPMI-8402); test: Three dose response gene expression analysis (qRT-PCR); settings: 0.1, 1 and 10 µM, 24 h; for HES1 and c-MYC expression: T-ALL cells; for c-MYC expression: T-ALL cell lines
# Protocol: (§1) Total RNA from cell lines was isolated using the RNeasy Mini kit (cat #74104, Qiagen), according to the manufacturer’s instructions. qRT-PCR was performed as described elsewhere[51] with some minor modifications: RNA was reverse transcribed to cDNA using iScript Reverse Transcription Supermix (cat # 1708841, Bio-rad). cDNA was then diluted 1:5 in nuclease free H20. qRT-PCR was performed on a C1000 Touch thermal cycler (Bio-rad) and gene expression was detected with SsoAdvanced Universal SYBR Green Supermix (cat # 1725274, Bio-rad). Gene expression was determined by normalizing to GAPDH mRNA expression levels and fold expression change was calculated using the ΔΔCT method (ΔΔCT = ΔCt sample − Δct control). Primers used in qPCR are shown in Supplemental Table 9.
# (§2) Adherent breast cancer cells were seeded in 24-well cell culture plates (ThermoFisher, Nunc, Delta surface, cat #144530) and T-ALL cells growing in suspension (Jurkat, RPMI-8402) were seeded in non-adherent 24-well plates (ThermoFisher, Nunc, cat […]). 60.000 cells were seeded and treated with 0.1, 1 and 10 µM of each compound. […] Cells were harvested 24 h post treatment and RNA isolation and gene expression analysis (qRT-PCR) was performed as described above.
# MDA-MB-231 cells = test: as above; settings: 0.1, 1 and 10 µM, 24 h
# Protocol: as §1, §2
# [3] = 14p APP assay DR, bottom constrained to Emax of positive control LY-411575
# [4] = 14p APP assay DR, Notch inhibitor controls, no bottom constraint named
smiles,measurement,setting,value
COc1cccc(CNc2ccc(N3CCCCC3)cc2)c1OCc1cccs1 [compound C],V1744 (activated N1) band intensity,NOTCH1,14466.8
same,V1744 normalised to beta-actin signals,NOTCH1,0.8
same,"V1744, DMSO as reference",NOTCH1,0.5945
same,Hill-slope,γ-secretase complex; [3],0.0377
same,remaining activity at 10 µM,γ-secretase complex,150%
same,activity at 10 µM,γ-secretase complex,150%
same,remaining activity at 25 µM,γ-secretase complex,152%
same,remaining activity at […],γ-secretase complex,157%
same,AUC APP,γ-secretase complex,731.3
same,IC50,"[1]; Homo sapiens, the other breast cancer cell lines (other than MDA-MB-468)",> 10 µM
same,viability assay,[1],context specific
same,tumor cell growth,[1],+
same,HES1 and c-MYC expression,[2],dose-dependent downregulation
same,HES4 expression,MDA-MB-231 cells,upregulated
same,c-MYC expression,MDA-MB-231 cells,downregulation
"CC(C)(C(=O)NCC(F)(F)C(F)(F)F)C(=O)N[C@@H]1C(=O)Nc2ccccc2-c2ccccc21 [RO4929097, reference compound]",V1744 (activated N1) band intensity,NOTCH1,4624.07
same,V1744 normalised to beta-actin signals,NOTCH1,0.211
same,"V1744, DMSO as reference",NOTCH1,0.1638
same,Hill-Slope 9p APP counter assay averaged,γ-secretase complex; 9p dose response,-1.5
same,AUC 9p APP-counter assay,γ-secretase complex; 9p dose response,2.88E+02
same,AUC. 14p APP-counter assay,γ-secretase complex; 14p dose response,5.27E+02
same,AUC APP,γ-secretase complex,527.4
same,APP assay,γ-secretase complex,higher potency
same,viability assay,[1],context specific
same,c-MYC expression,[2],consistently reduced
same,c-MYC expression,MDA-MB-231 cells,did not reduce
"C[C@H](NC(=O)Cc1cc(F)cc(F)c1)C(=O)N[C@H](C(=O)OC(C)(C)C)c1ccccc1 [DAPT, reference compound]",S3-processing of Notch1ΔE (Western blot),"NOTCH1; clone A (#A1-11), Fig. 1F",almost completely abolished
same,Hill-Slope 9p APP counter assay averaged,γ-secretase complex; 9p dose response,-2.8
same,AUC 9p APP-counter assay,γ-secretase complex; 9p dose response,3.64E+02
same,IC50,"γ-secretase complex; 9p dose response, averaged, read-out: 9p APP counter assay averaged IC50s",2.5 µM
same,9p APP counter assay averaged IC50s (log),"γ-secretase complex; 9p dose response, log10 of averaged IC50",-5.6
same,IC50,"γ-secretase complex; 9p dose response, read-out: approximated IC50s 9p APP counter assay",2.5 µM
same,IC50,"γ-secretase complex; 14-point, unit inferred, some fits outside of tested concentration range, read-out: approximated IC50s 14p APP-counter assay",0.4 µM
same,curve fit information,γ-secretase complex; [4],IC50 indeterminate
same,IC50,"γ-secretase complex; 14p APP assay DR, Notch inhibitor controls, no bottom constraint named, read-out: approximated IC50",5.2 µM
same,IC50,"γ-secretase complex; 14p dose response, single replicates, read-out: approximated IC50s 14p APP counter assay averaged",5.2 µM
same,AUC. 14p APP-counter assay,γ-secretase complex; 14p dose response,5.80E+02
same,IC50,"γ-secretase complex; 14p dose response, averaged over replicates, read-out: 14p APP counter assay averaged IC50s",5.2 µM
same,AUC APP,γ-secretase complex,580.4
same,APP assay,γ-secretase complex,higher potency
same,viability assay,[1],context specific
NC(=O)c1c(NC(=O)NCc2cccnc2)sc2c1CCC2 [compound D],V1744 (activated N1) band intensity,NOTCH1,30696.5
same,V1744 normalised to beta-actin signals,NOTCH1,1.2
same,"V1744, DMSO as reference",NOTCH1,0.9101
same,Hill-slope,"γ-secretase complex; 14p APP assay DR, bottom constrained to Emax of positive control LY-411575, listed as CBK307578",0.0595
same,remaining activity at 10 µM,γ-secretase complex,119%
same,remaining activity at 25 µM,γ-secretase complex,134%
same,remaining activity at […],γ-secretase complex,78%
same,AUC APP,γ-secretase complex,449.6
same,IC50,[1]; all cell lines (breast cancer),> 10 µM
same,tumor cell growth,[1],-
same,HES1 and c-MYC expression,[2],dose-dependent downregulation
same,HES1 expression,MDA-MB-231 cells,downregulated
same,HES4 expression,MDA-MB-231 cells,reduced
same,transcript levels of the Notch ligand Jagged1,MDA-MB-231 cells,reduced
"CC(C)(C)c1ccc(Oc2ccc(N)cn2)cc1 [CB-103, reference compound]",V1744 (activated N1) band intensity,NOTCH1,20841.8
same,V1744 normalised to beta-actin signals,NOTCH1,0.8
same,"V1744, DMSO as reference",NOTCH1,0.6093
same,Hill-Slope 9p APP counter assay averaged,γ-secretase complex; 9p dose response,-2.0
same,AUC 9p APP-counter assay,γ-secretase complex; 9p dose response,3.16E+02
same,curve fit information,γ-secretase complex; [4],IC50 indeterminate
same,AUC. 14p APP-counter assay,γ-secretase complex; 14p dose response,5.48E+02
same,AUC APP,γ-secretase complex,548.4
same,APP assay,γ-secretase complex,weak potency
same,viability assay,[1],context specific
same,c-MYC expression,[2],reduced
same,c-MYC expression,MDA-MB-231 cells,trend towards upregulation
Cc1nn(-c2nc3ccccc3s2)c(O)c1C1OC(=O)c2ccccc21 (stereo not drawn) [compound E],V1744 (activated N1) band intensity,NOTCH1,44303.5
same,V1744 normalised to beta-actin signals,NOTCH1,1.9
same,"V1744, DMSO as reference",NOTCH1,1.451
same,Hill-slope,γ-secretase complex; [3],-0.00246
same,remaining activity at 10 µM,γ-secretase complex,80.7%
same,remaining activity at 25 µM,γ-secretase complex,81.7%
same,remaining activity at […],γ-secretase complex,83.7%
same,AUC APP,γ-secretase complex,684.1
same,IC50,[1]; all cell lines (breast cancer),> 10 µM
same,tumor cell growth,[1],-
same,HES1 and c-MYC expression,[2],dose-dependent downregulation
same,HES1 expression,MDA-MB-231 cells,downregulated
same,transcript levels of the Notch ligand Jagged1,MDA-MB-231 cells,reduced
CCc1c(C(=O)N(C)Cc2cnn(C(C)C)c2)[nH]c2ccccc12 [compound A],V1744 (activated N1) band intensity,NOTCH1,20296.9
same,V1744 normalised to beta-actin signals,NOTCH1,1.0
same,"V1744, DMSO as reference",NOTCH1,0.806
same,effect in the APP assay,"γ-secretase complex; 14-point dose-response, Supplemental Fig. 4J",showed an inhibitory effect at high concentrations
same,Hill-slope,"γ-secretase complex; 14p APP assay DR, bottom constrained to Emax of positive control CB-103",-1.6
same,Hill-slope,γ-secretase complex; [3],-1.6
same,remaining activity at 10 µM,γ-secretase complex,71.4%
same,activity at 10 µM,γ-secretase complex,71.3%
same,remaining activity at 25 µM,γ-secretase complex,62.2%
same,remaining activity at […],γ-secretase complex,75.7%
same,AUC APP,γ-secretase complex,658.8
same,IC50,[1]; all cell lines (breast cancer),> 10 µM
same,tumor cell growth,[1],-
same,HES1 expression,MDA-MB-231 cells,downregulated
same,HES4 expression,MDA-MB-231 cells,reduced
same,transcript levels of the Notch ligand Jagged1,MDA-MB-231 cells,reduced
